What all share (experiment): growth of human tumour cells (NCI), 48 h
Assay [1] relates to SK-MEL-5.
The test system of assay [2] is EKVX.
The test system of assay [3] is UACC-257.
Assay [4] deals with BT-549.
Assay [5] relates to SK-MEL-28.
For assay [6], the system named is A549.
For assay [7], the system named is IGROV-1.
The subject of assay [8] is A498.
In assay [9] the test system is SNB-19.
The test system of assay [10] is SNB-75.
Assay [11] has as its system SF-295.
In assay [12] the test system is UACC-62.
Assay [13] relates to 786-0.
For assay [14], the system named is TK-10.
Assay [15] relates to OVCAR-3.
Assay [16] deals with MDA-N.
The subject of assay [17] is Malme-3M.
The test system of assay [18] is CCRF-CEM.
Assay [19] deals with NCI/ADR-RES.
In assay [20] the test system is NCI-H522.

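Briefly, cells in 96-well plates were exposed to five compound concentrations for 48 h, and endpoints were estimated by linear interpolation. GI50 is the concentration that inhibits growth by half.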 Active and inactive are the calls of the source. Rule as the data show it: active = GI50 up to about 1.1 µM and inactive = higher.

Regarding `O=C1c2c(O)cccc2Cc2cc(CO)cc(O)c21`, the GI50 in assay [1] is 1.69 µM (inactive); in [2] it was 3.03 µM (inactive); in assay [3], 2.14 µM (inactive); in [4], 2.01 µM (inactive); in assay [5], 3.96 µM (inactive); in assay [6], 2.92 µM (inactive). The GI50 in assay [7] was 4.03 µM (inactive); in [8] it was 4.22 µM (inactive); in [9] it was 2.49 µM (inactive); in assay [10], 1.05 µM (active); in [11], 1.52 µM (inactive); in assay [12] it was 2.09 µM (inactive). Also, the GI50 in assay [13] is 3.21 µM (inactive); in assay [14], 4.08 µM (inactive); in assay [15], 1.66 µM (inactive); in assay [16], 2.74 µM (inactive); in assay [17] it was 2.21 µM (inactive); in assay [18], 3.28 µM (inactive). For the same molecule, in [19], the GI50 is 3.59 µM (inactive).

For the molecule `CCOP(=O)(OCC)/C(C#N)=C/c1nccn1C`, the GI50 in assay [2], in [3], in assay [4], in [5], in [6] and in [8] was > 100 µM (inactive) each time. The GI50 in assay [20], in assay [9], in assay [10], in assay [11], in [13] and in [14] was > 100 µM (inactive) in each case. The GI50 in assay [15], in assay [16], in assay [18] and in [19] was > 100 µM (inactive) in each case.

Take `C=C1CC2(CCOc3ccc(Cl)cc32)OC1=O` (stereo unspecified): the GI50 in [1] is 5.02 µM (inactive); in assay [2], 3.42 µM (inactive); in assay [3], 5.74 µM (inactive); in assay [4], 0.352 µM (active); in [5] it was 8.38 µM (inactive); in assay [6] it was 13.5 µM (inactive). For the same molecule, the GI50 in [7] was 8.57 µM (inactive); in assay [8] it was 11.9 µM (inactive); in [20] it was 0.885 µM (active); in assay [9], 13.1 µM (inactive); in assay [10], 3.61 µM (inactive); in assay [11] it was 7.24 µM (inactive). The GI50 is 13.1 µM (inactive) in [12]; 2.15 µM (inactive) in assay [13]; 5.77 µM (inactive) in assay [14]; 1.39 µM (inactive) in assay [15]; 3.53 µM (inactive) in assay [16]; 1.45 µM (inactive) in assay [18]. In addition, in assay [19], the GI50 was 6.47 µM (inactive).

As to `COC(=O)C(COC(=O)/C=C/c1ccc(OC(C)=O)c(OC(C)=O)c1)NC(=O)/C=C/c1ccc(OC(C)=O)c(OC(C)=O)c1` (stereo unspecified), the GI50 in assay [1] was 14.7 µM (inactive); in assay [2], 25.5 µM (inactive); in [3] it was 44.4 µM (inactive); in [4], 25.2 µM (inactive); in [5], 26.2 µM (inactive); in assay [6] it was 40.9 µM (inactive). Besides, the GI50 in [7] is 43.6 µM (inactive); in assay [8] it was > 100 µM (inactive); in [20] it was 18.1 µM (inactive); in assay [9] it was 22.9 µM (inactive); in assay [10], 29.9 µM (inactive); in assay [12], 15 µM (inactive). Also, the GI50 is 17.9 µM (inactive) in [13]; 15.4 µM (inactive) in [15]; 20.5 µM (inactive) in assay [16]; 11.3 µM (inactive) in [17]; 16.1 µM (inactive) in assay [18]; 45.8 µM (inactive) in assay [19].

Regarding `O=C1CSC(c2cccc(Cl)c2)N1c1ccc(-n2c(-c3ccccc3)nc3ccccc3c2=O)cc1` (stereo unspecified), the GI50 in assay [1] is 47 µM (inactive); in [2] it was > 100 µM (inactive); in assay [3], > 100 µM (inactive); in assay [4], 9.98 µM (inactive); in assay [5], > 100 µM (inactive); in [6], > 100 µM (inactive). The GI50 is 59.2 µM (inactive) in assay [7]; 94.8 µM (inactive) in assay [8]; 43.3 µM (inactive) in assay [20]; > 100 µM (inactive) in assay [9]; > 100 µM (inactive) in [11]; 21.4 µM (inactive) in assay [12]. Moreover, the GI50 is > 100 µM (inactive) in assay [13]; > 100 µM (inactive) in assay [14]; > 100 µM (inactive) in assay [15]; > 100 µM (inactive) in [16]; > 100 µM (inactive) in assay [17]; 40 µM (inactive) in assay [18]. Moreover, the GI50 in [19] was 25.5 µM (inactive).

`CCCCCCCCCCCCCCCCS(=O)(=O)c1ccc(NN)cc1`: the GI50 in [1] is > 10 µM (inactive); in assay [2], > 10 µM (inactive); in assay [3], > 10 µM (inactive); in assay [4] it was > 10 µM (inactive); in assay [5] it was > 10 µM (inactive); in [6], 5.27 µM (inactive). Further, the GI50 is > 10 µM (inactive) in [7]; > 10 µM (inactive) in assay [8]; 5.9 µM (inactive) in [20]; > 10 µM (inactive) in assay [9]; > 10 µM (inactive) in assay [11]; > 10 µM (inactive) in assay [12]. The GI50 was > 10 µM (inactive) in assay [13]; > 10 µM (inactive) in [14]; 8.81 µM (inactive) in [15]; > 10 µM (inactive) in assay [16]; > 10 µM (inactive) in assay [17]; 1.63 µM (inactive) in assay [18]. The GI50 in assay [19] was > 10 µM (inactive).

`C1=N\c2ccc(cc2)/N=C\c2ccc(cc2)OCc2cccc(n2)COc2ccc/1cc2`: the GI50 in [1], in assay [2], in [3], in assay [4], in assay [5] and in assay [6] was > 100 µM (inactive) in each case. For the same molecule, the GI50 in assay [7], in assay [8], in assay [20], in assay [9], in [10] and in [11] was > 100 µM (inactive) in each case. Moreover, the GI50 in assay [12], in assay [13], in assay [15], in assay [16], in assay [17] and in assay [18] was > 100 µM (inactive) throughout. In addition, in assay [19], the GI50 was > 100 µM (inactive).

As for `NC(CSC1c2ccccc2-c2ccccc21)C(=O)O` (stereo unspecified), the GI50 in assay [1], in [2], in assay [3], in [4], in assay [5] and in [6] was > 100 µM (inactive) throughout. In addition, the GI50 in [7], in assay [8], in [9], in assay [10], in [11] and in [12] was > 100 µM (inactive) throughout. The GI50 in assay [13], in assay [14], in assay [15], in assay [16], in [17] and in assay [18] was > 100 µM (inactive) each time. Also, in [19], the GI50 was > 100 µM (inactive).

For the molecule `NC1=NCCN1CC(=O)O` [CYCLOCREATINE], the GI50 was > 1000 µM (inactive) in assay [1]; > 10000 µM (inactive) in [2]; > 1000 µM (inactive) in assay [3]; > 1000 µM (inactive) in assay [4]; > 1000 µM (inactive) in assay [5]; > 1000 µM (inactive) in assay [6]. Moreover, the GI50 in assay [7] is > 1000 µM (inactive); in [8], > 1000 µM (inactive); in assay [20], > 10000 µM (inactive); in assay [9], > 1000 µM (inactive); in assay [11], > 10000 µM (inactive); in assay [12], > 1000 µM (inactive). The GI50 is > 1000 µM (inactive) in assay [13]; > 1000 µM (inactive) in [14]; > 1000 µM (inactive) in assay [15]; > 10000 µM (inactive) in [16]; > 1000 µM (inactive) in assay [17]; > 1000 µM (inactive) in assay [18]. Further, the GI50 in assay [19] was > 1000 µM (inactive).

With `O=C1C=CC=C/C1=C1\N=C(c2ccccc2OCC(=O)c2ccc(Br)cc2)SS1`, the GI50 in assay [1] was > 100 µM (inactive); in [2], 89.9 µM (inactive); in assay [3] it was > 100 µM (inactive); in assay [4], 13.3 µM (inactive); in assay [5], > 100 µM (inactive); in [6] it was > 100 µM (inactive). Also, the GI50 was 9.23 µM (inactive) in [7]; > 100 µM (inactive) in assay [8]; > 100 µM (inactive) in [9]; 8.93 µM (inactive) in assay [10]; 28.2 µM (inactive) in assay [11]; 23.1 µM (inactive) in [12]. The GI50 in assay [13] is 31.5 µM (inactive); in assay [14], 13.5 µM (inactive); in assay [15] it was > 100 µM (inactive); in [16] it was > 100 µM (inactive); in assay [17], > 100 µM (inactive); in [18], > 100 µM (inactive). In addition, the GI50 in assay [19] is > 100 µM (inactive).

The values are drawn from ChEMBL document CHEMBL1201862, “PubChem BioAssay data set” (2004).
